From US8563588B2, “Imidazolone derivatives, method for the preparation thereof and biological applications” (Universite de Rennes 1, priority 2007, dated 2013)

Molecular target: Rat recombinant DYRK1A (Rattus norvegicus, UniProt Q63470)
Experiment: Assaying of the kinase activity of DYRK1A (33P-ATP, myelin basic protein, P81 filter);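 note: GST fusion rat DYRK1A made in E. coli, scintillation counting of label bound to substrate, activity as percent of the inhibitor-free maximum after blank subtraction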
Type: biochemical
Conditions: 15 μM ATP, 30° C., 30 min; read-out: IC50 DYRK1A

Row | Compound | IC50 [nM]
1 | CN1C(=O)/C(=C/c2ccc3c(c2)OCO3)N=C1NCc1ccccc1 [FC097] | 1400
2 | CCCSC1=N/C(=C\c2c[nH]c3ccccc23)C(=O)N1C [FB14] | > 10000
3 | CNC1=N/C(=C\c2ccc3c(c2)OCO3)C(=O)N1 [FC085] | 1700
4 | CCSC1=N/C(=C\c2cc(Br)c3c(c2)OCO3)C(=O)N1C [ST342] | > 10000
5 | CCCNC1=N/C(=C\c2ccc3c(c2)OCO3)C(=O)N1 [FC126] | 890
6 | O=C1/C(=C/c2ccc3c(c2)OCO3)NC(=S)N1c1ccccc1 [JR370] | > 10000
7 | O=C1NC(SCC2CCC2)=N/C1=C\c1ccc2c(c1)OCO2 [ST142] | 780
8 | COc1cc(/C=C2\NC(=S)NC2=O)cc(Br)c1O [ST229] | 65000
9 | CN1C(=O)/C(=C/c2ccc3c(c2)OCO3)N=C1Nc1ccc2c(c1)OCCO2 [MADE29] | 190
10 | NC1=N/C(=C\c2ccc(O)c(O)c2)C(=O)N1 [ST326] | > 10000
11 | CC(C)NC1=N/C(=C\c2ccccc2)C(=O)N1C [FC095] | > 10000
12 | CN1C(=O)/C(=C/c2ccc3c(c2)OCO3)N=C1NCc1ccc2c(c1)OCO2 [MADE12] | 4600
13 | CCCCN1C(=O)/C(=C/c2ccc(OC)c(OC)c2)N=C1SCC [SB58] | > 10000
14 | CSC1=N/C(=C\c2ccc(Br)cc2)C(=O)N1C [JR162] | > 10000
15 | CN1C(=O)C(=Cc2c[nH]c3ccccc23)NC1=S [ST197] | > 10000
16 | CSC1=N/C(=C\c2ccccc2)C(=O)N1C [JR158] | > 10000
17 | CN1C(=O)/C(=C/c2ccc3c(c2)OCO3)N=C1Nc1ccc2c(c1)OCO2 [MADE30] | 370
18 | CCSC1=N/C(=C\c2c[nH]c3ccccc23)C(=O)N1C [FB08] | > 10000
19 | CCNC1=N/C(=C\c2ccc3c(c2)OCO3)C(=O)N1 [FC090, (5Z)-5-Benzo[1,3]dioxol-5-ylmethylene-2-ethylamino-3,5-dihydro-4H-imidazol-4-one] | 1100
20 | CCSC1=N/C(=C\c2ccc3c(c2)OCO3)C(=O)N1 [ST120] | 440
21 | CCCNC1=N/C(=C\c2ccccc2)C(=O)N1C [FCFD08] | > 10000
22 | CN1C(=O)/C(=C/c2ccc3c(c2)OCO3)N=C1NCC1CC1 [FC107] | 980
23 | O=C1NC(=S)N/C1=C\c1cc(Br)c2c(c1)OCO2 [ST279] | > 10000
24 | CCCCSC1=N/C(=C\c2c[nH]c3ccccc23)C(=O)N1C [FB17] | > 10000
25 | CSC1=N/C(=C\c2ccccn2)C(=O)N1C [JR160] | > 10000
26 | CSC1=N/C(=C\c2ccc3c(c2)OCO3)C(=O)N1 [ST105] | 680
27 | CCCCN1C(=O)/C(=C/c2ccc3c(c2)OCO3)N=C1SCc1ccc([N+](=O)[O-])cc1 [SB60] | > 10000

Row | Compound | IC50 [nM]
28 | CSC1=N/C(=C\c2ccc(O)cc2)C(=O)N1C [ST078] | 6700
29 | CCSC1=N/C(=C\c2ccc(OC)c(OC)c2)C(=O)N1C [SB55] | > 10000
30 | CN1C(=O)/C(=C/c2ccc3c(c2)OCO3)N=C1Nc1ccccc1 [MADE42] | 430
31 | COc1cc(/C=C2\N=C(N)NC2=O)ccc1O [ST325] | 170
32 | O=C1NC(Nc2ccc(O)cc2)=N/C1=C\c1ccc2c(c1)OCO2 [MADE48] | 84
33 | CCSC1=N/C(=C\c2cc(Br)c3c(c2)OCO3)C(=O)N1 [ST280] | > 10000
34 | CCSC1=N/C(=C\c2ccc(O)c(O)c2)C(=O)N1 [ST286] | > 10000
35 | COc1cc(/C=C2\NC(=S)NC2=O)ccc1O [ST202] | > 10000
36 | COc1cc(/C=C2\N=C(SC)N(C)C2=O)cc(OC)c1OC [JR161] | > 10000
37 | CC(C)NC1=N/C(=C\c2ccccn2)C(=O)N1C [FC109] | > 10000
38 | CCCNC1=N/C(=C\c2ccc3c(c2)OCO3)C(=O)N1c1ccccc1 [JR445] | > 10000
39 | CCOC(=O)C(=O)NC1=N/C(=C\c2ccc3c(c2)OCO3)C(=O)N1C [IA35] | > 10000
40 | CN1C(=O)/C(=C/c2ccc3c(c2)OC(F)(F)O3)NC1=S [ST089] | > 10000
41 | CN1C(=O)/C(=C/c2ccc3c(c2)OCO3)N=C1Nc1ccc(O)cc1 [MADE8] | 380
42 | CCCCN1C(=O)/C(=C/c2cc3c(cc2Br)OCO3)N=C1SCC [SB80] | > 10000
43 | O=C1NC(Nc2ccccc2)=N/C1=C\c1ccc2c(c1)OCO2 [MADE44] | 71
44 | CCSC1=N/C(=C\c2cc(OC)cc(OC)c2)C(=O)N1C [SB56] | > 10000
45 | CN1C(=O)/C(=C/c2cc(Br)c3c(c2)OCO3)NC1=S [ST341] | > 10000
46 | O=C1NC(=S)N/C1=C\c1c[nH]c2ccccc12 [ST195] | > 10000
47 | CN1C(=O)/C(=C/c2ccc(O)cc2)NC1=S [ST076] | > 10000
48 | CCCNC1=N/C(=C\c2cc(OC)c(OC)c(OC)c2)C(=O)N1C [FCFD14] | > 10000
49 | CCCSC1=N/C(=C\c2ccc3c(c2)OCO3)C(=O)N1 [ST122] | 440
50 | CCOC(=O)CSC1=N/C(=C\c2ccc3c(c2)OCO3)C(=O)N1c1ccccc1 [JR411] | > 10000
51 | CN1C(=O)/C(=C/c2ccc3c(c2)OCO3)N=C1Nc1ccccc1 [MADE32] | 400
52 | CCSC1=N/C(=C\c2ccc3c(c2)OC(F)(F)O3)C(=O)N1C [ST091] | > 10000
53 | CSC1=N/C(=C\c2ccccc2O)C(=O)N1C [JR159] | > 10000

More lines, now with the values ahead:

Row | IC50 [nM] | Compound
54 | 5800 | CCOC(=O)CSC1=N/C(=C\c2ccc3c(c2)OCO3)C(=O)N1C [JR404]
55 | 1500 | CN1C(=O)/C(=C/c2ccc3c(c2)OCO3)N=C1SCC1CC1 [ST102]
56 | 15000 | C=CC(=O)NC1=N/C(=C\c2ccc3c(c2)OCO3)C(=O)N1C [IA32]
57 | 650 | COCCSC1=N/C(=C\c2ccc3c(c2)OCO3)C(=O)N1 [ST164]
58 | > 10000 | CCCNC1=N/C(=C\c2ccc3c(c2)OC(F)(F)O3)C(=O)N1C [ST092]
59 | 230 | CN1C(=O)/C(=C/c2ccc3c(c2)OCO3)N=C1Nc1cccc(CO)c1 [MADE37]
60 | > 10000 | CC(=O)NC1=N/C(=C\c2ccc3c(c2)OCO3)C(=O)N1C [IA24]
61 | > 10000 | CN1C(=O)/C(=C/c2ccc3c(c2)OCO3)NC1=S [ST223]
62 | 590 | CCCCSC1=N/C(=C\c2ccc3c(c2)OCO3)C(=O)N1 [ST124]
63 | > 10000 | C#CCSC1=N/C(=C\c2ccc3c(c2)OCO3)C(=O)N1CCCC [SB22]
64 | 3400 | C=CCSC1=N/C(=C\c2ccc3c(c2)OCO3)C(=O)N1C [SB14]
65 | 1800 | CCCSC1=N/C(=C\c2ccc3c(c2)OCO3)C(=O)N1C [ST094]
66 | 1400 | COC(CNC1=N/C(=C\c2ccc3c(c2)OCO3)C(=O)N1C)OC [MADE10]
67 | 220 | CN1C(=O)/C(=C/c2ccc3c(c2)OCO3)N=C1c1ccc2c(c1)OCO2 [NL88A]
68 | 1300 | CN1C(=O)/C(=C/c2ccc3c(c2)OCO3)N=C1NCCCO [SA142]
69 | 940 | CN1C(=O)/C(=C/c2ccc3c(c2)OCO3)N=C1Nc1ccc(O)c(C(=O)O)c1 [MADE33]
70 | 860 | CN1C(=O)/C(=C/c2ccc3c(c2)OCO3)N=C1Nc1ccc(CC(=O)O)cc1 [MADE34]
71 | 470 | CN1C(=O)/C(=C/c2ccc3c(c2)OCO3)N=C1SCC#N [ST211]
72 | 2300 | CCCNC1=N/C(=C\c2ccc3c(c2)OCO3)C(=O)N1C [FCJR405, (5Z)-5-Benzo[1,3]dioxol-5-ylmethylene-3-methyl-2-propylamino-3,5-dihydroimidazol-4-one]
73 | 1600 | C=CCNC1=N/C(=C\c2ccc3c(c2)OCO3)C(=O)N1C [FCFD13]
74 | > 10000 | CCCCN1C(=O)/C(=C/c2ccc3c(c2)OCO3)NC1=S [JR361]
75 | 460 | CC(C)SC1=N/C(=C\c2ccc3c(c2)OCO3)C(=O)N1 [ST135]

Row | IC50 [nM] | Compound
76 | 790 | CN1C(=O)/C(=C/c2ccc3c(c2)OCO3)N=C1NCC(O)CO (stereo not shown) [MADE47]
77 | > 10000 | C=CCSC1=N/C(=C\c2ccc3c(c2)OCO3)C(=O)N1CCCC [SB25]
78 | > 10000 | CCCCN1C(=O)/C(=C/c2ccc3c(c2)OCO3)N=C1SC [JR448]
79 | 730 | CN1C(=O)/C(=C/c2ccc3c(c2)OCO3)N=C1NCCO [MADE40]
80 | 2500 | COCCSC1=N/C(=C\c2ccc3c(c2)OCO3)C(=O)N1C [SA197]
81 | > 10000 | CN1C(=O)/C(=C/c2ccc3c(c2)OCO3)N=C1NC(=O)Cc1ccccc1 [IA25]
82 | > 10000 | COC(=O)NCCNC1=N/C(=C\c2ccc3c(c2)OCO3)C(=O)N1C [MADE24]
83 | 1700 | CC(C)CCNC1=N/C(=C\c2ccc3c(c2)OCO3)C(=O)N1C [ST025]
84 | 2300 | CCCCSC1=N/C(=C\c2ccc3c(c2)OCO3)C(=O)N1C [ST101]
85 | 1300 | CC(C)SC1=N/C(=C\c2ccc3c(c2)OCO3)C(=O)N1C [ST097]
86 | 900 | CCNC1=N/C(=C\c2ccc3c(c2)OCO3)C(=O)N1C [FC088]
87 | 900 | C#CCSC1=N/C(=C\c2ccc3c(c2)OCO3)C(=O)N1C [SB16]
88 | > 10000 | CCCCNC1=N/C(=C\c2ccc3c(c2)OCO3)C(=O)N1CCCC [FCJR464]
89 | 5700 | CN1C(=O)/C(=C/c2ccc3c(c2)OCO3)N=C1SCc1ccccc1 [SB28]
90 | 170 | N#CCSC1=N/C(=C\c2ccc3c(c2)OCO3)C(=O)N1 [ST209]
91 | > 10000 | CC(C)CNC1=N/C(=C\c2ccc3c(c2)OCO3)C(=O)N1C [FCFD24]
92 | > 10000 | CCCCN1C(=O)/C(=C/c2ccc3c(c2)OCO3)N=C1NCCCO [SA164]
93 | > 10000 | CN1C(=O)/C(=C/c2ccc3c(c2)OCO3)N=C1NC(=O)c1ccccc1 [IA33]
94 | 690 | CN1C(=O)/C(=C/c2ccc3c(c2)OCO3)N=C1Nc1ccccc1O [MADE9]
95 | 260 | CC(O)c1cccc(NC2=N/C(=C\c3ccc4c(c3)OCO4)C(=O)N2C)c1 (racemic) [MADE36]
96 | 1200 | COCCNC1=N/C(=C\c2ccc3c(c2)OCO3)C(=O)N1C [FC103]

Same assay, conditions: IC50 DYRK1A

Row | Compound | IC50 [nM]
97 | CNC1=N/C(=C\c2ccc3c(c2)OCO3)C(=O)N1C [FC084] | 2700
98 | CN1C(=O)/C(=C/c2ccc3c(c2)OCO3)N=C1NCCCCCO [MADE23] | 3000
99 | COc1ccc(NC2=N/C(=C\c3ccc4c(c3)OCO4)C(=O)N2C)cc1 [MADE39] | 270

Same assay, conditions: IC50 DYRK1A, 15 μM ATP, 30° C., 30 min

Row | Compound | IC50 [nM]
100 | CC(C)NC1=N/C(=C\c2ccc3c(c2)OCO3)C(=O)N1C [FCJR232] | 1300
